Source: ChEMBL document CHEMBL4364275, “Jietacins, azoxy natural products, as novel NF-κB inhibitors: Discovery, synthesis, biological activity, and mode of action” (Eur J Med Chem, 2019)
In brackets after ≈: the same amount, converted by molar mass. Activity calls are given as the source filed them. No cut-off for these calls is given here.

Columns and labels:
Homo sapiens [1] = organism: Homo sapiens; test: Inhibition of NF-kappaB localization in nucleus of human L540 cells at 6 ug/ml measured after 5 hrs by DAPI staining immunofluorescence microscopy
ATN-1 = test: Antiproliferative activity against human ATN1 cells assessed as reduction in cell viability measured after 24 hrs by MTT assay; format: functional; conditions: ATN-1, 24 h, read-out: ED50 (the source's name)
K562 [2] = test: Antiproliferative activity against human K562 cells assessed as reduction in cell viability at 10 ug/ml measured after 24 hrs by MTT assay relative to control; format: functional
Homo sapiens [3] = organism: Homo sapiens; test: Inhibition of NF-kappaB localization in nucleus of human L540 cells at 10 ug/ml measured after 5 to 24 hrs by DAPI staining immunofluorescence microscopy
Homo sapiens [4] = organism: Homo sapiens; test: Inhibition of TNF alpha stimulated NF-kappaB in human FL cells transfected with kappaB luciferase at 5 to 10 ug/ml incubated for 4 hrs followed by TNF alpha stimulation measured after 3 hrs by dual luciferase reporter gene assay; format: cell-based
Homo sapiens [5] = organism: Homo sapiens; test: Inhibition of NF-kappaB localization in nucleus of human L540 cells at 3 ug/ml measured after 5 hrs by DAPI staining immunofluorescence microscopy
Homo sapiens [6] = organism: Homo sapiens; test: Inhibition of NF-kappaB localization in nucleus of human L540 cells at 1.5 ug/ml measured after 5 hrs by DAPI staining immunofluorescence microscopy
Homo sapiens [7] = organism: Homo sapiens; test: Inhibition of NF-kappaB localization in nucleus of human L540 cells at 5 ug/ml measured after 5 hrs by DAPI staining immunofluorescence microscopy
Homo sapiens [8] = organism: Homo sapiens; test: Inhibition of NF-kappaB localization in nucleus of human L540 cells at 0.7 ug/ml measured after 5 to 24 hrs by DAPI staining immunofluorescence microscopy
Homo sapiens [9] = organism: Homo sapiens; test: Antiproliferative activity against human KMM1 cells assessed as reduction in cell viability at 25 to 100 ng/ml measured after 24 to 48 hrs by MTT assay; format: functional, cell-based
Homo sapiens [10] = organism: Homo sapiens; test: Inhibition of NF-kappaB localization in nucleus of human L540 cells at 0.2 ug/ml measured after 5 hrs by DAPI staining immunofluorescence microscopy
HeLa [11] = test: Inhibition of TNF alpha stimulated NF-kappaB in human HeLa cells transfected with GFP-fused RelA mutant and IKBalpha expressing plasmid incubated for 2 hrs followed by TNF alpha stimulation by immunofluorescence microscopy; format: cell-based
[12] = target: Transcription factor p65 (Homo sapiens) (UniProt Q04206); test: Inhibition of NF-kappaB RelA association with importin alpha in human KM-H2 cells at 0.2 ug/ml after 6 hrs by immunoprecipitation method; format: cell-based
Sequence of Transcription factor p65 (Homo sapiens) (Q04206 whole entry): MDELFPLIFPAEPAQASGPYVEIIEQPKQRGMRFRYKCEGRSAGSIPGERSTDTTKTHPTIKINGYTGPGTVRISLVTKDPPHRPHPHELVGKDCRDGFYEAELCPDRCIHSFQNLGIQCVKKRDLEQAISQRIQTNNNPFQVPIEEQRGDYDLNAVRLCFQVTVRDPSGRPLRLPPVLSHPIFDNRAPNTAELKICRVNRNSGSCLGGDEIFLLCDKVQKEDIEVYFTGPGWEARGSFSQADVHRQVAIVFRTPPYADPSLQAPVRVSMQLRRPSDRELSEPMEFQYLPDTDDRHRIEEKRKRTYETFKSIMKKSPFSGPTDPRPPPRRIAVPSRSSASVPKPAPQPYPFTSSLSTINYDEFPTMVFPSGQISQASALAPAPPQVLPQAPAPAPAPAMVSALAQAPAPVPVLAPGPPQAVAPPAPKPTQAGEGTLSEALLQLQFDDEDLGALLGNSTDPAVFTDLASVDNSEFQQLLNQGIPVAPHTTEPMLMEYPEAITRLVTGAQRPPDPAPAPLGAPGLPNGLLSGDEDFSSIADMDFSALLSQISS

KM-H2 = test: Antiproliferative activity against human KM-H2 cells assessed as reduction in cell viability at 25 to 100 ng/ml measured after 24 to 48 hrs by MTT assay; format: functional, cell-based
U-266 = test: Antiproliferative activity against human U266 cells assessed as reduction in cell viability at 25 to 100 ng/ml measured after 24 to 48 hrs by MTT assay; format: functional, cell-based
[13] = target: T1, Importin subunit alpha-4 (Homo sapiens) (UniProt O00505); test: Inhibition of importin alpha 3 in human KM-H2 cells at 0.2 ug/ml after 6 hrs by Western blot analysis (reference value: 1); format: cell-based
T1 sequence (whole entry): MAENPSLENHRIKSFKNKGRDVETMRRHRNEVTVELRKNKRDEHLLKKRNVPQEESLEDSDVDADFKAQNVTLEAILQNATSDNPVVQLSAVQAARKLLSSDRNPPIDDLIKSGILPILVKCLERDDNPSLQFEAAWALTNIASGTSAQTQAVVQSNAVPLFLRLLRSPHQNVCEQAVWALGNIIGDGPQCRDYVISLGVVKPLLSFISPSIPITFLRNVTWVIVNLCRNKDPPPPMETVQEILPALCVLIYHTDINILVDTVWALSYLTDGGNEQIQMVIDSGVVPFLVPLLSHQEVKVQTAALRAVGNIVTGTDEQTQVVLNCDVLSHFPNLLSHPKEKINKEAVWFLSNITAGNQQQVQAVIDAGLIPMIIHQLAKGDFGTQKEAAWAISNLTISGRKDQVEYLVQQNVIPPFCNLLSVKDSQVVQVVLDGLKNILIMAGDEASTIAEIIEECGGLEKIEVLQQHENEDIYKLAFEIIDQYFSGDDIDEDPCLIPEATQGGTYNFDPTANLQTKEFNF

HeLa [14] = test: Antiproliferative activity against human HeLa cells assessed as reduction in cell viability at 25 to 100 ng/ml measured after 24 to 48 hrs by MTT assay; format: functional, cell-based
[15] = Acute toxicity in rat; conditions: in vivo
Homo sapiens [16] = organism: Homo sapiens; test: Antiproliferative activity against human KK1 cells assessed as reduction in cell viability at 25 to 100 ng/ml measured after 24 to 48 hrs by MTT assay; format: functional, cell-based
Homo sapiens [17] = organism: Homo sapiens; test: Inhibition of TNF alpha stimulated NF-kappaB in human FL cells transfected with kappaB luciferase incubated for 2 hrs followed by TNF alpha stimulation measured after 3 hrs by dual luciferase reporter gene assay; format: cell-based
L-540 = test: Antiproliferative activity against human L540 cells assessed as reduction in cell viability at 25 to 100 ng/ml measured after 24 to 48 hrs by MTT assay; format: functional, cell-based
HeLa [18] = test: Inhibition of TNF alpha stimulated NF-kappaB localization in nucleus of human HeLa cells transfected with GFP-fused RelA C38S and IKBalpha expressing plasmid incubated for 2 hrs followed by TNF alpha stimulation by immunofluorescence microscopy; format: cell-based
Homo sapiens [19] = organism: Homo sapiens; test: Antiproliferative activity against human KOB cells assessed as reduction in cell viability at 25 to 100 ng/ml measured after 24 to 48 hrs by MTT assay; format: functional, cell-based
HeLa [20] = test: Inhibition of TNF alpha stimulated NF-kappaB in human HeLa cells transfected with GFP-fused p50 mutant and IKBalpha expressing plasmid incubated for 2 hrs followed by TNF alpha stimulation by immunofluorescence microscopy; format: cell-based
HeLa [21] = test: Inhibition of TNF alpha stimulated NF-kappaB localization in nucleus of human HeLa cells transfected with GFP-fused RelA and IKBalpha expressing plasmid incubated for 2 hrs followed by TNF alpha stimulation by immunofluorescence microscopy; format: cell-based
K562 [22] = test: Antiproliferative activity against human K562 cells assessed as reduction in cell viability at 25 to 100 ng/ml measured after 24 to 48 hrs by MTT assay; format: functional, cell-based

| Compound | EC50 (ATN-1) [µg/mL] | Activity (K562 [2]) [%] | also measured |
| --- | --- | --- | --- |
| C=C/[N+]([O-])=N/CCCCCCCC(=O)CCCCCCC(C)C | 1.17 (≈ 3.61 µM) | <20 | inhibition (Homo sapiens [1]): Active |
| C=C/[N+]([O-])=N/CCCCCCCCn1cc(CCCCC#N)nn1 | 0.97 (≈ 2.92 µM) | <20 |  |
| C=C/[N+]([O-])=N/CCCCCCCCOS(C)(=O)=O | 1.18 (≈ 4.24 µM) | <20 |  |
| C=C/[N+]([O-])=N/CCCCCCCC(=O)CCCCC[C@@H](C)CC | 1.65 (≈ 5.08 µM) | <20 |  |
| C=C/[N+]([O-])=N/CCCCCCCCn1nncc1CCC(C)C | 0.85 (≈ 2.64 µM) | <20 |  |
| C=C/[N+]([O-])=N/CCCCCCCCn1cc(C(C)C)nn1 | 0.84 (≈ 2.86 µM) | <20 |  |
| C=C/[N+]([O-])=N/CCCCCCCC(=O)CCCCCC(C)C | 1.82 (≈ 5.86 µM) | <20 | inhibition (Homo sapiens [3]): Active; inhibition (Homo sapiens [4]): Active |
| C=CC(C)(C)[C@@]12C=C(OC)C(=O)N3/C(=C/c4c[nH]cn4)C(=O)N[C@]31N(OC)c1ccccc12 |  |  | inhibition (Homo sapiens [3]): inactive |
| C=C/[N+]([O-])=N/CCCCCCCCn1cc(-c2ccccc2)nn1 | 0.76 (≈ 2.32 µM) | <20 |  |
| C=C/[N+]([O-])=N/CCCCCCCCn1cc(C2CC2)nn1 | 0.84 (≈ 2.88 µM) | <20 | inhibition (Homo sapiens [5]): Active |
| C=C/[N+]([O-])=N/CCCCCCCCn1cc(CN(Cc2cn(CCCCCCCC/N=[N+](\[O-])C=C)nn2)Cc2cn(CCCCCCCC/N=[N+](\[O-])C=C)nn2)nn1 | 0.23 (≈ 0.285 µM) | <20 | inhibition (Homo sapiens [6]): Active |
| C=C/[N+]([O-])=N/CCCCCCCCn1cc(C(C)(C)C)nn1 | 0.69 (≈ 2.24 µM) | <20 | inhibition (Homo sapiens [5]): Active |
| C=C/[N+]([O-])=N/CCCCCCCC(=O)CCc1ccccc1 | 1.09 (≈ 3.6 µM) | <20 |  |
| C=C/[N+]([O-])=N/CCCCCCCCn1cc(CCCCO)nn1 | 0.71 (≈ 2.2 µM) | <20 | inhibition (Homo sapiens [5]): Active |
| C=C/[N+]([O-])=N/CCCCCCCCn1cc([Si](C)(C)C)nn1 | 0.68 (≈ 2.1 µM) | <20 |  |
| C=C/[N+]([O-])=N/CCCCCCCCn1cc(CC(C)C)nn1 | 0.83 (≈ 2.7 µM) | <20 |  |
| C=C/[N+]([O-])=N/CCCCCCCCn1cc(-c2ccc(N)cc2)nn1 | 0.76 (≈ 2.22 µM) | <20 |  |

| Compound | EC50 (ATN-1) [µg/mL] | Activity (K562 [2]) [%] | also measured |
| --- | --- | --- | --- |
| C=C/[N+]([O-])=N/CCCCCCCC(=O)CCCCC[C@H](C)CC | 1.49 (≈ 4.59 µM) | <20 |  |
| C=C/[N+]([O-])=N/CCc1ccccc1 | 1.03 (≈ 5.84 µM) | <20 | inhibition (Homo sapiens [7]): Active |
| C=C/[N+]([O-])=N/CCCCCCCCn1cc(-c2cccnc2)nn1 | 0.82 (≈ 2.5 µM) | <20 |  |
| C=C/[N+]([O-])=N/CCCCCCCC(C)=O | 2.26 (≈ 10.6 µM) | <20 |  |
| C=C/[N+]([O-])=N/CCCCCCCCn1cc(CCBr)nn1 | 0.97 (≈ 2.71 µM) | <20 |  |
| CC1(C)CCC2=C(O1)c1ccccc1C(=O)C2=O |  |  | inhibition (Homo sapiens [8]): inactive |
| C=C/[N+]([O-])=N/CCCCCCCCn1ccnn1 | 1.01 (≈ 4.02 µM) | <20 |  |
| C=C/[N+]([O-])=N/CCCCCCCCn1cc(-c2cc3ccccc3c3ccccc23)nn1 | 1.03 (≈ 2.41 µM) | <20 |  |
| C=C/[N+]([O-])=N/CCCCCCCCn1cc(CCCC)nn1 | 0.69 (≈ 2.24 µM) | <20 |  |
| C#CC(=O)CCCCCCC/N=[N+](\[O-])C=C | 0.03 (≈ 0.135 µM) | <20 | Activity (Homo sapiens [9]): Active; inhibition (Homo sapiens [10]): Active; inhibition (HeLa [11]): inactive; inhibition [12]: Active; inhibition (Homo sapiens [4]): Active; Activity (KM-H2): Active; Activity (U-266): Active; fold change (FC) [13]: 0.53; Activity (HeLa [14]): Active; LD50 [15]: > 300 mg/kg; Activity (Homo sapiens [16]): Active; inhibition (Homo sapiens [17]): Dose-dependent effect; Activity (L-540): Active; inhibition (HeLa [18]): inactive; Activity (Homo sapiens [19]): Active; inhibition (HeLa [20]): Active; inhibition (HeLa [21]): Active; Activity (K562 [22]): Active |
| C=C/[N+]([O-])=N/CCCCCCCCn1cc(C(C)(C)O)nn1 | 1.15 (≈ 3.72 µM) | <20 |  |
| C=C/[N+]([O-])=N/CCCCCCCCn1cc(C2(O)CCCCC2)nn1 | 1.31 (≈ 3.75 µM) | <20 |  |
| C=C/[N+]([O-])=N/CCCCCCCCO[Si](C)(C)C(C)(C)C | 1.34 (≈ 4.26 µM) | <20 |  |
| C=C/[N+]([O-])=N/CCCCCCCCn1cc(CCC(C)C)nn1 | 0.72 (≈ 2.24 µM) | <20 |  |
| C=C/[N+]([O-])=N/CCCCCCCC(=O)CCCCCC | 1.29 (≈ 4.57 µM) | <20 |  |
| C=C/[N+]([O-])=N/CCCCCCCCO | 1.05 (≈ 5.24 µM) | <20 |  |
